The record followed here is US10266549B2, “ULK1 inhibitors and methods using same” (SALK INSTITUTE FOR BIOLOGICAL STUDIES, priority 2014, dated 2019).

Each structure is given as a SMILES string. A value given as a limit tells only on which side of the number the result lay.

The target of this experiment is ULK1 (Homo sapiens (Human), UniProt O75385). The experiment in a line: ULK1 inhibition assay (Table 1). The format is biochemical. Conditions: * = tested as a mixture of regioisomers.
Sequence of ULK1 (O75385 whole entry, species assumed): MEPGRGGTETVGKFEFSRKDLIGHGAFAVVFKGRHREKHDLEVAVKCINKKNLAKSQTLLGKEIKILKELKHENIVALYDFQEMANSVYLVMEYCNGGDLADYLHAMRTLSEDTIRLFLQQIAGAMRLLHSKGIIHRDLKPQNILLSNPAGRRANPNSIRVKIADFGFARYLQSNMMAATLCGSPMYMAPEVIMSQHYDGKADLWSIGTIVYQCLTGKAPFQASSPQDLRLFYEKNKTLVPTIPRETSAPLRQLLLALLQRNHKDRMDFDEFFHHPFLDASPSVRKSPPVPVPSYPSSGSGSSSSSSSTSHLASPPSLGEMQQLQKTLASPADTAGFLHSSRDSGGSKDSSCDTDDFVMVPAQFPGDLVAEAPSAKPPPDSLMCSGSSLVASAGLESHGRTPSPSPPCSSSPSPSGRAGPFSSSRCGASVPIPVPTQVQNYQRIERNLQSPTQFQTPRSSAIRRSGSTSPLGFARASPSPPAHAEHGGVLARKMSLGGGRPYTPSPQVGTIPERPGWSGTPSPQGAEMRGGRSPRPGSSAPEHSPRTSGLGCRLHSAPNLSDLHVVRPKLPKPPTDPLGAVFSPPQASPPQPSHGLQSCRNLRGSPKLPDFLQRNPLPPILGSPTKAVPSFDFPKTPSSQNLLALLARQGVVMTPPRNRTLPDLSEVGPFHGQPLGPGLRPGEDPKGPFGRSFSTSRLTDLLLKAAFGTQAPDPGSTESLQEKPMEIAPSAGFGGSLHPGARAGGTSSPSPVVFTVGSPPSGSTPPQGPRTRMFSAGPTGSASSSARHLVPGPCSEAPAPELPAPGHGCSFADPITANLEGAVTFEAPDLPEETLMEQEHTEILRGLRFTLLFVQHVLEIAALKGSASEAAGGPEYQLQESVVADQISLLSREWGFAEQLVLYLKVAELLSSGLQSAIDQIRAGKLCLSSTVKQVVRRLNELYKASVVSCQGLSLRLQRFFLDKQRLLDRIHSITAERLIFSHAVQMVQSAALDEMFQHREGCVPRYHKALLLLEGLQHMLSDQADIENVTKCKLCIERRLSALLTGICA
The term IC50 denotes the midpoint of a concentration-inhibition curve. Take `CNC(=O)c1ccccc1Nc1nc(Nc2ccccc2Cl)ncc1Cl` [compound 74, 2-(5-Chloro-2-(2-chlorophenylamino)pyrimidin-4-ylamino)-N-methylbenzamide]: the IC50 was in the range of 200 to 2000 nM. In the case of `O=C1CCc2cc(Nc3nc(OC4Cc5ccccc5C4)ncc3C(F)(F)F)ccc2N1` [180b, 6-((2-((2,3-dihydro-1H-inden-2-yl)oxy)-5-(trifluoromethyl)pyrimidin-4-yl)amino)-3,4-dihydroquinolin-2(1H)-one] it was above 2000 nM; in that of `O=C1CCc2cc(Nc3nc(NC4Cc5ccccc5C4)ncc3C(F)(F)F)ccc2N1` [130b, 6-((2-((2,3-dihydro-1H-inden-2-yl)amino)-5-(trifluoromethyl)pyrimidin-4-yl)amino)-3,4-dihydroquinolin-2(1H)-one], above 2000 nM.

In the case of `COc1ccc(Nc2nc(Nc3ccc4[nH]ccc4c3)ncc2Cl)cn1` [compound 29, 5-Chloro-N^2-(1H-indol-5-yl)-N^4-(6-methoxypyridin-3-yl) pyrimidine-2,4-diamine], the IC50 is 200 to 2000 nM.

Turning to `CNC(=O)c1ccccc1Oc1nc(Nc2ccc(OC)cc2)ncc1C(F)(F)F` [105a, 2-((2-((4-methoxyphenyl)amino)-5-(trifluoromethyl)pyrimidin-4-yl)oxy)-N-methylbenzamide], the IC50 was above 2000 nM. As to `O=C1CCc2cc(Nc3ncc(C(F)(F)F)c(NC4CCCC4)n3)ccc2N1` [160a, 6-((4-(cyclopentylamino)-5-(trifluoromethyl)pyrimidin-2-yl)amino)-3,4-dihydroquinolin-2(1H)-one], the concentration for half-maximal inhibition (IC50) is below 200 nM. Then `FC(F)(F)c1cnc(Nc2cnc3[nH]ccc3c2)nc1NC1CCC1` [161a, N^4-cyclobutyl-N^2-(1H-pyrrolo[2,3-b]pyridin-5-yl)-5-(trifluoromethyl)pyrimidine-2,4-diamine], with below 200 nM. With `CNC(=O)c1ccccc1Nc1nc(Nc2cc(OC)c(OC)c(OC)c2)ncc1-c1ccccc1` [compound 73, N-Methyl-2-(5-phenyl-2-(3,4,5-trimethoxyphenylamino)pyrimidin-4-ylamino)benzamide], the half-maximal inhibitory concentration (IC50) is below 200 nM.

On to `CNC(=O)c1ccccc1Sc1nc(Nc2cc(OC)ccc2C)ncc1C(F)(F)F` [compound 117, 2-((2-((5-methoxy-2-methylphenyl)amino)-5-(trifluoromethyl)pyrimidin-4-yl)thio)-N-methylbenzamide], for which the half-inhibitory concentration (IC50) is above 2000 nM. In the case of `COc1cc(N2CCOCC2)ccc1Nc1ncc(C(F)(F)F)c(Nc2ccc3c(c2)CCC(=O)N3)n1` [123b, 6-((2-((2-methoxy-4-morpholinophenyl)amino)-5-(trifluoromethyl)pyrimidin-4-yl)amino)-3,4-dihydroquinolin-2(1H)-one] it was below 200 nM. In the case of `CNC(=O)c1ccccc1Nc1nc(Nc2cc(OC)c(OC)c(OC)c2)ncc1C(F)(F)F` [compound 36, N-Methyl-2-(5-(trifluoromethyl)-2-(3,4,5-trimethoxyphenylamino)pyrimidin-4-ylamino)benzamide] it was above 2000 nM; in that of `CS(=O)(=O)c1cccc(CNc2nc(Nc3ccc4c(c3)CC(=O)N4)ncc2C(F)(F)F)c1` [compound 33, 5-((4-((3-(Methylsulfonyl)benzyl)amino)-5-(trifluoromethyl)pyrimidin-2-yl)amino)indolin-2-one], 200 to 2000 nM; in that of `CNC(=O)c1ccccc1Oc1nc(Nc2ccc(C)cc2Cl)ncc1C(F)(F)F` [compound 107, 2-((2-((2-chloro-4-methylphenyl)amino)-5-(trifluoromethyl)pyrimidin-4-yl)oxy)-N-methylbenzamide], above 2000 nM.

Take `CNC(=O)c1cccc(Oc2nc(Nc3ccc4c(c3)CCC(=O)N4)ncc2C(F)(F)F)c1` [compound 122, N-methyl-3-((2-((2-oxo-1,2,3,4-tetrahydroquinolin-6-yl)amino)-5-(trifluoromethyl)pyrimidin-4-yl)oxy)benzamide]: the IC50 lay in the range of 200 to 2000 nM. For the compound `CNc1nc(Nc2cnc3[nH]ccc3c2)ncc1C(F)(F)F` [182a, N4-methyl-N2-(1H-pyrrolo[2,3-b]pyridin-5-yl)-5-(trifluoromethyl)pyrimidine-2,4-diamine], the half-maximal inhibitory concentration (IC50) was below 200 nM. Then `FC(F)(F)c1cnc(Nc2ccc3c(c2)OCO3)nc1NC1Cc2ccccc2C1` [163b, N^2-(benzo [d] [1,3]dioxol-5-yl)-N^4-(2,3-dihydro-1H-inden-2-yl)-5-(trifluoromethyl)pyrimidine-2,4-diamine], with above 2000 nM; and `CC(=O)Nc1ccc(Nc2nc(Nc3ccc4c(c3)CCC(=O)N4)ncc2C(F)(F)F)cc1` [compound 132, N-(4-((2-((2-oxo-1,2,3,4-tetrahydroquinolin-6-yl)amino)-5-(trifluoromethyl)pyrimidin-4-yl)amino)phenyl)acetamide], with below 200 nM. Then `CNC(=O)c1ccccc1Nc1nc(Nc2ccc(N3CCOCC3)cc2OC)ncc1C(F)(F)F` [compound 39, 2-(2-(2-Methoxy-4-morpholinophenylamino)-5-(trifluoromethyl)pyrimidin-4-ylamino)-N-methylbenzamide], with below 200 nM. In the case of `Brc1cnc(Nc2cnc3[nH]ccc3c2)nc1NC1CC1` [compound 174, 5-bromo-N4-cyclopropyl-N2-(1H-pyrrolo[2,3-b]pyridin-5-yl)pyrimidine-2,4-diamine] it was below 200 nM; in that of `O=C1CCc2cc(Nc3ncc(C(F)(F)F)c(OC4CCC4)n3)ccc2N1` [compound 175, 6-((4-cyclobutoxy-5-(trifluoromethyl)pyrimidin-2-yl)amino)-3,4-dihydroquinolin-2(1H)-one], below 200 nM. With `CNC(=O)c1ccccc1Oc1nc(Nc2cccc(OC)c2OC)ncc1C(F)(F)F` [115a, 2-((2-((2,3-dimethoxyphenyl)amino)-5-(trifluoromethyl)pyrimidin-4-yl)oxy)-N-methylbenzamide], the IC50 is above 2000 nM. Then `FC(F)(F)c1cnc(Nc2cccc3ccccc23)nc1Nc1cccc2ccccc12` [126b, N^2,N^4-di(naphthalen-1-yl)-5-(trifluoromethyl) pyrimidine-2,4-diamine], with 200 to 2000 nM. In the case of `Oc1nc(Nc2ccc(Cl)c(Cl)c2)ncc1C(F)(F)F` [108b, 2-((3,4-dichlorophenyl)amino)-5-(trifluoromethyl)pyrimidin-4-ol] it was above 2000 nM; in that of `COc1cc(N2CCOCC2)ccc1Nc1ncc(Br)c(Nc2ccccc2S(=O)(=O)N(C)C)n1` [compound 80, 2-(5-Bromo-2-(2-methoxy-4-morpholinophenylamino)pyrimidin-4-ylamino)-N—N-dimethylbenzenesulfonamide], below 200 nM; in that of `FC(F)(F)c1cnc(NC2CC2)nc1Nc1ccc2c(c1)OCCO2` [158b, N^2-cyclopropyl-N^4-(2,3-dihydrobenzo[b][1,4]dioxin-6-yl)-5-(trifluoromethyl)pyrimidine-2,4-diamine], below 200 nM.

On to `CNC(=O)c1ccccc1Oc1nc(Nc2cc(Br)ccc2C)ncc1C(F)(F)F` [compound 100, 2((2-((5-bromo-2-methylphenyl)amino)-5-(trifluoromethyl)pyrimidin-4-yl)oxy)-N-methylbenzamide], for which the IC50 was above 2000 nM.

Regarding `CNC(=O)c1ccccc1Nc1nc(Nc2cc(OC)ccc2C)ncc1Br` [compound 17, 2-(5-Bromo-2-(5-methoxy-2-methylphenylamino)pyrimidin-4-ylamino)-N-methylbenzamide], the 50% inhibitory concentration (IC50) was below 200 nM. In the case of `CNC(=O)c1ccccc1Oc1nc(Nc2ccccc2)ncc1C(F)(F)F` [compound 99, N-methyl-2-((2-(phenylamino)-5-(trifluoromethyl)pyrimidin-4-yl)oxy)benzamide] it was above 2000 nM; in that of `CNC(=O)c1ccccc1Nc1nc(Nc2ccc3c(c2)OCO3)ncc1Cl` [compound 49, 2-(2-(Benzo[d][1,3]dioxol-5-ylamino)-5-chloropyrimidin-4-ylamino)-N-methylbenzamide], below 200 nM; in that of `CNC(=O)c1ccccc1Nc1nc(Nc2ccc3[nH]ccc3c2)ncc1Br` [compound 23, 2-(2-(1H-indol-5-ylamino)-5-bromopyrimidin-4-ylamino)-N-methylbenzamide], below 200 nM. Then `Fc1c(Nc2nc(Nc3ccc4c(c3)OCO4)ncc2C(F)(F)F)cccc1C(F)(F)F` [141b, N^2-(benzo[d][1,3]dioxol-5-yl)-N^4-(2-fluoro-3-(trifluoromethyl)phenyl)-5-(trifluoromethyl)pyrimidine-2,4-diamine], with below 200 nM.

For the compound `CNC(=O)c1ccccc1Nc1nc(Nc2ccc3c(c2)CCC(=O)N3)ncc1Br` [compound 20, 2-((5-Bromo-2-((2-oxo-1,2,3,4-tetrahydroquinolin-6-yl)amino)pyrimidin-4-yl)amino)-N-methylbenzamide], the half-maximal inhibitory concentration (IC50) was below 200 nM. In the case of `O=C1CCc2cc(Nc3nc(NC4CC4)ncc3C(F)(F)F)ccc2N1` [131b, 6-((2-(cyclopropylamino)-5-(trifluoromethyl)pyrimidin-4-yl)amino)-3,4-dihydroquinolin-2(1H)-one], the IC50 was below 200 nM.

`Nc1ncc(C(F)(F)F)c(Nc2ccc3c(c2)OCO3)n1` [165a, N^4-(benzo[d][1,3]dioxol-5-yl)-5-(trifluoromethyl)pyrimidine-2,4-diamine]: the concentration for half-maximal inhibition (IC50) fell in the range of 200 to 2000 nM. In the case of `CNC(=O)c1ccccc1Nc1nc(Nc2ccc3c(c2)OCCO3)ncc1Cl` [compound 51, 2-(5-Chloro-2-(2,3-dihydrobenzo[b][1,4]dioxin-6-ylamino)pyrimidin-4-ylamino)-N-methylbenzamide] it was below 200 nM. In the case of `COc1ccc(Nc2nc(Nc3ccc(N4CCOCC4)cc3OC)ncc2Cl)cn1` [compound 27, 5-Chloro-N^2-(2-methoxy-4-morpholinophenyl)-N^4-(6-methoxypyridin-3-yl)pyrimidine-2,4-diamine] it was above 2000 nM; in that of `COCCNc1nc(Nc2cnc3[nH]ccc3c2)ncc1C(F)(F)F` [compound 179, N4-(2-methoxyethyl)-N2-(1H-pyrrolo[2,3-b]pyridin-5-yl)-5-(trifluoromethyl)pyrimidine-2,4-diamine], 200 to 2000 nM; in that of `O=C1CCc2cc(Nc3ncc(C(F)(F)F)c(NCc4ccccc4)n3)ccc2N1` [compound 43, 6-(4-(Benzylamino)-5-(trifluoromethyl)pyrimidin-2-ylamino)-3,4-dihydroquinolin-2(1H)-one], below 200 nM.
